This is an account of results in patent US8372848B2, “Melanin-concentrating hormone receptor antagonists and methods of use” (Mixture Sciences, Inc., priority 2004, dated 2013).

pEC50: −log10 of the molar value.

Usually pEC50 stands for −log10 of the EC50, conventionally taken in molar units.

One assay concerns rats. Briefly: MCH-induced food intake after icv administration. It is filed as in vivo, rat. The settings on record: 2 nmol icv. How it is done: To determine inhibitory effects of TPI 1361-17 on MCH-induced food intake, rats were habituated to a wire bottom cage for more than 3 weeks prior to the experiment. Experiments were carried out from 6 a.m. to 7 a.m. when rats were satiated. […] On the other hand, five nmol of TPI 1361-17 suppressed cumulative food intake by 75% even at 4h (FIG. 5B).
To determine the effects of TPI 1361-17 on MCH-induced food intake, rats were randomly divided into three groups: 1) TPI 1361-17 (dissolved in DMSO) and 2 nmol of MCH; 2) MCH 2 nmol, 3) ACSF. Each mixture contained a DMSO equivalent concentration to that of the antagonist solution (up to 5% (v/v)). Ten μl of each solution was administered into lateral ventricle for 2 minutes. The injections were done between 7:00-8:00 a.m., and food intake was monitored for 4 h after the injection.
For animal studies, adult male Sprague-Dawley rats weighing 200-300g were obtained from Charles River Laboratories (Wilmington, Mass.), bearing a 23-gauge stainless steel cannula placed into the right lateral ventricle. Rats were housed individually and maintained on a 12 h light-dark cycle (6:00 am-6:00 pm light) with free access to tap water and rat chaw (PROLAB RMH 2500, containing 23.0% protein, 4.5% fat, gross energy 4.5 kcal/g. PMI nutrition international, LLC. Brentwood, Mo.). Prior to all studies, rats were handled and habituated for 7 days, and 10 μl of artificial cerebrospinal fluid (ACSF: NaCl 124, KCl 5, CaCl2 2.4 MgSO4 2, KH2PO4 1.25, NaHCO3 26 and glucose 10, in mM) was injected through the cannula to minimize stress effects at the time of the experiment. Cannula placement was confirmed in all animals by evaluating the response to 50 ng of angiotensin II. Only animals drinking more than 5 ml of water in 1 h were used in feeding studies.

In another assay the target is rat MCH1R (Rattus norvegicus, UniProt P97639). Kind of assay: MCH-induced Ca2+ mobilization (FLIPR) in HEK 293T cells expressing rat MCH1R. It is filed as cell-based. As to conditions: HEK 293T cell expressing rat MCH1R; read-out: EC50 for stimulation of Ca2+ mobilization. In general terms: A change in cytosolic calcium serves as a functional read-out for many receptors and channels.
Chain of rat MCH1R (P97639 whole entry): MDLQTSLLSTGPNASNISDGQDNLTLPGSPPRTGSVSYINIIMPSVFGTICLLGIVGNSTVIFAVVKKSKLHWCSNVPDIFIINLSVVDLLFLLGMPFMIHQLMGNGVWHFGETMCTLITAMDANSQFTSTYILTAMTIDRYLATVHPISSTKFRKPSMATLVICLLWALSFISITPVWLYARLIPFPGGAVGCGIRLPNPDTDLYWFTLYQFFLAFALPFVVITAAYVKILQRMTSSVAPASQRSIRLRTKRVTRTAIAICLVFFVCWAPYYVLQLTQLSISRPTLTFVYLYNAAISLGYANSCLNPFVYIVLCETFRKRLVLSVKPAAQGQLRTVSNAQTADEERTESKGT

In the case of `CSCC[C@@H]1NC(=O)[C@@H](NC(=O)[C@H](CCCNC(=N)N)NC(=O)[C@H](CC(C)C)NC(=O)[C@H](CCSC)NC(=O)[C@H](CC(=O)O)NC(=O)[C@H](Cc2ccccc2)NC(=O)[C@@H](N)CC(=O)O)CSSC[C@@H](C(=O)N[C@@H](Cc2c[nH]c3ccccc23)C(=O)N[C@@H](CCC(N)=O)C(=O)N[C@H](C(=O)O)C(C)C)NC(=O)[C@@H]2CCCN2C(=O)[C@H](CCCNC(=N)N)NC(=O)[C@H](Cc2ccc(O)cc2)NC(=O)[C@H](C(C)C)NC(=O)[C@H](CCCNC(=N)N)NC(=O)CNC(=O)[C@H](CC(C)C)NC1=O` [MCH, reference compound], the “Feeding in satiated rats” value in the assay on rats was “induced rapid and robust feeding”. Besides, on rat MCH1R, the pEC50 is 9.05.
